The numbers were not newly measured in patent US20170273935A1, “CINEOLE-CONTAINING COMPOSITION FOR NASAL APPLICATION” (Maria Clementine Martin Klosterfrau Vertriebsgesellschaft …, priority 2014, published 2017), which cites them from elsewhere.

Structures are written as SMILES.

Take `CC12CCC(CC1)C(C)(C)O2` [1,8-cineole, 1,3,3-trimethyl-2-oxabicyclo[2.2.2]octane]: the solubility in water result was “insoluble in water”.
